Experimental data published in US9259401B2 (priority 2011, dated 2016).

Legend:
Male Laca mice = test: Porsolt Forced Swim test (behavioural despair test); assay type: in vivo
Experimental: Method: Porsolt Forced Swim test (also called behavioural despair test)
Animals are subjected to two trials during which they are force to swim in an acrylic glass cylinder filled with water and from which they cannot escape. The first trial lasts 15 minutes. Then, after 24-hours, a second trial is performed which lasts 5 minutes. The time that the animal spends without moving in the second trial is measured. This immobility time is decreased by antidepressants.
After some time, the mice give up the attempt to escape from the water and subside into immobility. The duration of the immobility is measured. An animal was considered to be immobile whenever it remained floating passively in the water in a slightly hunched but upright position, its nose above the water surface. […] The total immobility period during the 6-min test was recorded with the help of stopwatch.
The immobility period data obtained from tables 1, 2 and 3 is plotted against the dose administered in FIG. 1, FIG. 2 and FIG. 3 respectively, as shown in the drawing accompanying this specification.
Test Procedures: Porsolt Forced Swim test. Rectangular glass jar (25×12×25 cm^3) containing 15 cm of water maintained at 24±1° C.
The immobility period data obtained from Tables 4, 5, 6 and 7 is plotted against the dose administered in FIG. 4, FIG. 5, FIG. 6 and FIG. 7 respectively, as shown in the drawing accompanying this specification.

Norepinephrine = test: Biological amine levels by HPLC-ECD after 45 min: norepinephrine; assay type: in vivo, mice
Experimental: (§1) Test Substances: […] Animals: Male Laca mice. Test Procedures: Animals were sacrificed after 45 min of drug administration similar to the time period of behavioral observations. HPLC-ECD detector: Mobile phase—Phosphate buffer: […] • Column—ODS-3 C-18 column (250×4.6 mm I.D.; 5 μm particle size)

Dopamine = test: Biological amine levels by HPLC-ECD after 45 min: dopamine; assay type: in vivo, mice
Experimental: as §1

5-hydroxytryptamine = test: Biological amine levels by HPLC-ECD after 45 min: 5-hydroxytryptamine; assay type: in vivo, mice
Experimental: as §1

[1] = Safety and tolerability of a single dose in healthy human subjects; assay type: in vivo; settings: curcumin 1 gm single dose
Source text: The secondary aim of study was to monitor the safety and tolerability of a single dose of 1 g curcuminoids when administered in 12 healthy human subjects.

rats = settings: 1.25, 2.5, 5 and 10 mg/kg P.O., chronic treatment 14 days; cited from earlier work
hippocampal neurogenesis = settings: 10 and 20 mg/kg, P.O., chronically stressed rats; cited from earlier work
mice = settings: cited from earlier work
[2] = system: serotonin (5-HT) as well as dopamine levels; settings: mice; cited from earlier work
[3] = system: monoamine oxidase enzymes; settings: mice; cited from earlier work
[4] = system: AC activity and c-AMP levels; settings: platelet and various brain regions, CUMS rats; cited from earlier work
[5] = dose 100 mg/kg vs fluoxetine 10 mg/kg
[6] = dose 100 mg/kg, sacrificed after 45 min, n = 5

COc1cc(C=CC(=O)CC(=O)C=Cc2ccc(O)c(OC)c2)ccc1O [Curcumin, 1,7-bis(4-hydroxy-3-methoxyphenyl)-1,6-heptadien-3,5-dione]
Potentiation with sub-effective dose of desipramine (Male Laca mice; 50 mg/kg with desipramine 5 mg/kg): failed to show any potentiation
Potentiated effect with sub-effective dose of tranylcypromine (Male Laca mice; 50 mg/kg with tranylcypromine 5 mg/kg): None
% Decrease in immobility w.r.t saline treated group (Male Laca mice; Table 1, dose 50 mg/kg): 22.55%
Immobility period (in seconds) (Male Laca mice; Table 1, dose 50 mg/kg): 171.8 ± 10.87^ seconds
% Decrease in immobility w.r.t saline treated group (Male Laca mice; Table 2, dose 100 mg/kg): 9.89%
Immobility period (Male Laca mice; Table 2, dose 100 mg/kg): 174.2 ± 15.17 s
% Decrease in immobility w.r.t saline treated group (Male Laca mice; Table 3, dose 200 mg/kg): 31.10%
Immobility period (Male Laca mice; Table 3, dose 200 mg/kg): 133.2 ± 26.82 s
% Decrease in immobility w.r.t saline group (Male Laca mice; Table 4, alone, 50 mg/kg): 12.79%
Immobility period (in seconds) (Male Laca mice; Table 4, alone, 50 mg/kg): 171.8 ± 10.87^ seconds
% Decrease in immobility w.r.t vehicle group (Male Laca mice; Table 5, alone, 50 mg/kg): 24.46%
Immobility period (Male Laca mice; Table 5, alone, 50 mg/kg): 160.33 ± 19.09 s
% Decrease in immobility w.r.t vehicle group (Male Laca mice; Table 6, alone, 50 mg/kg): 15.90%
Immobility period (Male Laca mice; Table 6, alone, 50 mg/kg): 215.50 ± 13.97 s
% Decrease in immobility w.r.t vehicle group (Male Laca mice; Table 7, alone, 50 mg/kg): 4.91%
Immobility period (Male Laca mice; Table 7, alone, 50 mg/kg): 262.25 ± 11.89 s
Norepinephrine % increase w.r.t Control (Norepinephrine; dose 100 mg/kg): 67.90%
Norepinephrine % increase w.r.t Fluoxetine (Norepinephrine; [5]): 19.18%
Norepinephrine (ng/mg tissue) (Norepinephrine; [6]): 4.97 ± 0.33a ng/mg tissue
Dopamine % increase w.r.t Control (Dopamine; dose 100 mg/kg): −20.25%
Dopamine % increase w.r.t Fluoxetine (Dopamine; [5]): −21.77%
Dopamine (ng/mg tissue) (Dopamine; [6]): 4.33 ± 0.58 ng/mg tissue
5-hydroxytryptamine % increase w.r.t Control (5-hydroxytryptamine; dose 100 mg/kg): 6.80%
5-hydroxytryptamine % increase w.r.t Fluoxetine (5-hydroxytryptamine; [5]): −21.77%
5-hydroxytryptamine (ng/mg tissue) (5-hydroxytryptamine; [6]): 4.24 ± 0.56 ng/mg tissue
Tolerability ([1]; all subjects): well tolerated
Adverse events ([1]; entire course of study): no adverse events reported
Immobility time in the forced swim test (rats): reduced the immobility time
Hippocampal neurogenesis (hippocampal neurogenesis): increased hippocampal neurogenesis
Immobility period (mice): inhibited the immobility period
Serotonin (5-HT) and dopamine levels [2]: increases serotonin (5-HT) as well as dopamine levels
Monoamine oxidase enzymes [3]: inhibited the monoamine oxidase enzymes
AC activity and c-AMP levels [4]: enhanced AC activity and c-AMP levels
